Experimental data published in patent US20210378246A1, “COMPOSITIONS COMPRISING HALAUXIFEN AND OTHER HERBICIDES AND METHODS THEREOF” (DOW AGROSCIENCES LLC, priority 2018, published 2021).
Values joined by “and” are separate entries in the source; they are usually repeats but may differ in a detail not shown here. Equal entries are not always repeated.

Assays:
Experiment in all cases: Greenhouse post-emergence weed control, visual score 0-100 percent
Type in all cases: in vivo
[1] = system: Abutilon theophrasti Medik. (velvetleaf, ABUTH)
Excerpt: (§1) Results in Examples are greenhouse trial results.
(§2) Seeds or nutlets of the desired test plant species were planted in a soil matrix prepared by mixing a loam or sandy loam soil (e.g., 28.6 percent silt, 18.8 percent clay, and 52.6 percent sand, with a pH of about 5.8 and an organic matter content of about 1.8 percent) and calcareous grit in an 80 to 20 ratio. The soil matrix was contained in plastic pots with a volume of 1 quart and a surface area of 83.6 cm2. When required to ensure good germination and healthy plants, a fungicide treatment and/or other chemical or physical treatment was applied. The plants were grown for 8-22 days in a greenhouse with an approximate 14 h photoperiod which was maintained at about 29° C. during the day and 26° C. during the night. Nutrients (Peters Excel® 15-5-15 5-Ca 2-Mg and iron chelate) were applied in the irrigation solution as needed and water was added on a regular basis. Supplemental lighting was provided with overhead metal halide 1000-Watt lamps as necessary. The plants were employed for testing when they reached the first through fourth true leaf stage.
(§3) Treatments comprised of the acid or esters of halauxifen-methyl (methyl 4-amino-3-chloro-6-(4-chloro-2-fluoro-3-methoxyphenyl)picolinate), each formulated as an SC (suspension concentrate), and various herbicidal components alone and in combination. A form of the compound of Formula I were applied on an acid equivalent basis.
(§4) Treatment requirements were calculated based upon the rates being tested, the concentration of active ingredient or acid equivalent in the formulation, and a 12 mL application volume at a rate of 187 L/ha.
(§5) For treatments comprised of formulated and technical compounds, weighed amounts of the technical materials were placed individually in 25 mL glass vials and dissolved in a volume of 97:3 v/v acetone/DMSO to obtain 12× stock solutions, and measured amounts of the formulated compounds were placed individually in 25 mL glass vials and diluted in a volume of 1.5% (v/v) crop oil concentrate or water to obtain 12× stock solutions. […] As required, additional water and/or 97:3 v/v acetone/DMSO was added to individual application solutions so that the final acetone and DMSO concentrations of the application solutions being compared were 8.1% and 0.25%, respectively.
(§6) All stock solutions and applications solutions were visually inspected for compound compatibility prior to application. Spray solutions were applied to the plant material with an overhead Mandel track sprayer equipped with an 8002E nozzle calibrated to deliver 187 L/ha over an application area of 0.503 m2 at a spray height of 18 to 20 inches (46 to 50 cm) above average plant canopy height. Control plants were sprayed in the same manner with the solvent blank.
(§7) The treated plants and control plants were placed in a greenhouse as described above and watered by sub-irrigation to prevent wash-off of the test compounds. After approximately […], the condition of the test plants as compared with that of the untreated plants was determined visually and scored on a scale of 0 to 100 percent where 0 corresponds to no injury or growth inhibition and 100 corresponds to complete kill.

[2] = system: Polygonum convolvulus L. (wild buckwheat, POLCO)
Excerpt: as §1, §2, §3, §4, §5, §6, §7

[3] = system: Sinapis arvensis L. (wild mustard, SINAR)
Excerpt: as §1, §2, §3, §4, §5, §6, §7

[4] = system: Amaranthus rudis Sauer, (common waterhemp, AMATA); conditions: 7 DAA
Excerpt: as §1, §2, §3, §4, §5, §6, §7

[5] = system: Chenopodium album L. (common lambsquarters, CHEAL)
Excerpt: as §1, §2, §3, §4, §5, §6
The treated plants and control plants were placed in a greenhouse as described above and watered by sub-irrigation to prevent wash-off of the test compounds. […], the condition of the test plants as compared with that of the untreated plants was determined visually and scored on a scale of 0 to 100 percent where 0 corresponds to no injury or growth inhibition and 100 corresponds to complete kill.

For `CCCCCCC(C)OC(=O)COc1nc(F)c(Cl)c(N)c1Cl` (stereo not drawn) [Chemical 3, 1-methytheptyl 2-[(4-amino-3,5-dichloro-6-fluoro-2-pyridinyl)oxy]acetate], which “Chemical 3 Mean % Weed Control” value ([1]; 7 DAA, alone at 8.8 gae/ha) is on record?
Its value is 15%.

And the “Chemical 3 Mean % Weed Control” value ([1]; 7 DAA, alone at 17.5 gae/ha)?
Its value is 28.75%.

What about the “Chemical 3 Mean % Weed Control” value ([1]; 7 DAA, alone at 35 gae/ha) of the same molecule?
Its value is 67.5%.

What about the “Chemical 3 Mean % Weed Control” value ([1]; 7 DAA, alone at 70 gae/ha) of the same molecule?
The value was 75.5%.

And the “Chemical 3 Mean % Weed Control” value ([1]; 14 DAA, alone at 8.8 gae/ha)?
The value was 2.5%.

What about the “Chemical 3 Mean % Weed Control” value ([1]; 14 DAA, alone at 17.5 gae/ha) of the same molecule?
Its value is 20%.

What about the “Chemical 3 Mean % Weed Control” value ([1]; 14 DAA, alone at 35 gae/ha) of the same molecule?
Its value is 67%.

What about the “Chemical 3 Mean % Weed Control” value ([1]; 14 DAA, alone at 70 gae/ha) of the same molecule?
Its value is 70%.

What about the “Chemical 3 Mean % Weed Control” value ([2]; 7 DAA, alone at 8.6 gae/ha) of the same molecule?
Its value is 52.5%.

And the “Chemical 3 Mean % Weed Control” value ([2]; 7 DAA, alone at 8.8 gae/ha)?
Its value is 52.5%.

And the “Chemical 3 Mean % Weed Control” value ([2]; 7 DAA, alone at 17.5 gae/ha)?
Its value is 47.5%.

And the “Chemical 3 Mean % Weed Control” value ([2]; 14 DAA, alone at 8.8 gae/ha)?
The value was 12.5%.

What about the “Chemical 3 Mean % Weed Control” value ([2]; 14 DAA, alone at 17.5 gae/ha) of the same molecule?
Its value is 62.25%.

And the “Chemical 3 Mean % Weed Control” value ([2]; 21 DAA, alone at 8.8 gae/ha)?
The value was 0%.

And the “Chemical 3 Mean % Weed Control” value ([3]; 14 DAA, alone at 35 gae/ha)?
Its value is 63.75%.

What about the “Chemical 3 Mean % Weed Control” value ([3]; 21 DAA, alone at 17.5 gae/ha) of the same molecule?
Its value is 54.25%.

What about the “Chemical 3 Mean % Weed Control” value ([4]; alone at 8.8 gae/ha) of the same molecule?
Its value is 0%.

What about the “Chemical 3 Mean % Weed Control” value ([4]; alone at 17.5 gae/ha) of the same molecule?
The value was 3.75%.

What about the “Chemical 3 Mean % Weed Control” value ([4]; alone at 35 gae/ha) of the same molecule?
Its value is 3.75%.

What about the “Chemical 3 Mean % Weed Control” value ([5]; 7 DAA, alone at 8.8 gae/ha) of the same molecule?
The value was 0%.

And the “Chemical 3 Mean % Weed Control” value ([5]; 7 DAA, alone at 17.S gae/ha)?
The value was 0%.

And the “Chemical 3 Mean % Weed Control” value ([5]; 7 DAA, alone at 17.5 gae/ha)?
The value was 0%.

What about the “Chemical 3 Mean % Weed Control” value ([5]; 7 DAA, alone at 35 gae/ha) of the same molecule?
Its value is 0%.

And the “Chemical 3 Mean % Weed Control” value ([5]; 7 DAA, alone at 70 gae/ha)?
Its value is 10%.

And the “Chemical 3 Mean % Weed Control” value ([5]; 14 DAA, alone at 8.8 gae/ha)?
The value was 0%.

What about the “Chemical 3 Mean % Weed Control” value ([5]; 14 DAA, alone at 17.5 gae/ha) of the same molecule?
Its value is 10% and 5%.

What about the “Chemical 3 Mean % Weed Control” value ([5]; 14 DAA, alone at 35 gae/ha) of the same molecule?
The value was 5% and 3.75% and 1.75%.

What about the “Chemical 3 Mean % Weed Control” value ([5]; 14 DAA, alone at 70 gae/ha) of the same molecule?
The value was 31.25% and 35%.

What about the “Chemical 3 Mean % Weed Control” value ([5]; 17 DAA, alone at 8.8 gae/ha) of the same molecule?
The value was 0%.

What about the “Chemical 3 Mean % Weed Control” value ([5]; 17 DAA, alone at 17.5 gae/ha) of the same molecule?
Its value is 8.75%.

What about the “Chemical 3 Mean % Weed Control” value ([5]; 17 DAA, alone at 35 gae/ha) of the same molecule?
Its value is 3.75%.

And the “Chemical 3 Mean % Weed Control” value ([5]; 17 DAA, alone at 70 gae/ha)?
The value was 38.75%.

How did the “Chemical 1 Mean % Weed Control” value ([1]; 7 DAA, alone at 1 gae/ha) turn out when `COC(=O)c1nc(-c2ccc(Cl)c(OC)c2F)cc(N)c1Cl` [Chemical 1, methyl 4-amino-3-chloro-6-(4-chloro-2-fluoro-3-methoxyphenyl)picolinate] was run?
The value was 81.25%.

What about the “Chemical 1 Mean % Weed Control” value ([1]; 7 DAA, alone at 2 gae/ha) of the same molecule?
Its value is 81.25%.

And the “Chemical 1 Mean % Weed Control” value ([1]; 7 DAA, alone at 4 gae/ha)?
Its value is 84.5%.

What about the “Chemical 1 Mean % Weed Control” value ([1]; 14 DAA, alone at 2 gae/ha) of the same molecule?
The value was 87.25%.

What about the “Chemical 1 Mean % Weed Control” value ([2]; 7 DAA, alone at 1 gae/ha) of the same molecule?
Its value is 2.5%.

And the “Chemical 1 Mean % Weed Control” value ([2]; 7 DAA, alone at 2 gae/ha)?
Its value is 11.25%.

And the “Chemical 1 Mean % Weed Control” value ([2]; 7 DAA, alone at 4 gae/ha)?
Its value is 28.75%.

What about the “Chemical 1 Mean % Weed Control” value ([2]; 14 DAA, alone at 2 gae/ha) of the same molecule?
The value was 0%.

And the “Chemical 1 Mean % Weed Control” value ([2]; 14 DAA, alone at 4 gae/ha)?
Its value is 20%.

What about the “Chemical 1 Mean % Weed Control” value ([2]; 21 DAA, alone at 1 gae/ha) of the same molecule?
The value was 0%.

What about the “Chemical 1 Mean % Weed Control” value ([2]; 21 DAA, alone at 2 gae/ha) of the same molecule?
The value was 6.25%.

What about the “Chemical 1 Mean % Weed Control” value ([2]; 21 DAA, alone at 4 gae/ha) of the same molecule?
Its value is 17.5%.

And the “Chemical 1 Mean % Weed Control” value ([3]; 14 DAA, alone at 4 gae/ha)?
The value was 0%.

What about the “Chemical 1 Mean % Weed Control” value ([3]; 21 DAA, alone at 1 gae/ha) of the same molecule?
The value was 1.25%.

And the “Chemical 1 Mean % Weed Control” value ([4]; alone at 2 gae/ha)?
The value was 70.5%.

And the “Chemical 1 Mean % Weed Control” value ([4]; alone at 4 gae/ha)?
Its value is 73%.

And the “Chemical 1 Mean % Weed Control” value ([5]; 7 DAA, alone at 1 gae/ha)?
Its value is 28.75%.

And the “Chemical 1 Mean % Weed Control” value ([5]; 7 DAA, alone at 2 gae/ha)?
Its value is 56.25%.

What about the “Chemical 1 Mean % Weed Control” value ([5]; 7 DAA, alone at 4 gae/ha) of the same molecule?
Its value is 56.25%.

And the “Chemical 1 Mean % Weed Control” value ([5]; 14 DAA, alone at 1 gae/ha)?
The value was 33.33% and 40%.

What about the “Chemical 1 Mean % Weed Control” value ([5]; 14 DAA, alone at 2 gae/ha) of the same molecule?
Its value is 60%.

What about the “Chemical 1 Mean % Weed Control” value ([5]; 14 DAA, alone at 4 gae/ha) of the same molecule?
Its value is 62.5% and 63.33%.

And the “Chemical 1 Mean % Weed Control” value ([5]; 17 DAA, alone at 1 gae/ha)?
Its value is 40%.

What about the “Chemical 1 Mean % Weed Control” value ([5]; 17 DAA, alone at 2 gae/ha) of the same molecule?
The value was 53.75%.

What about the “Chemical 1 Mean % Weed Control” value ([5]; 17 DAA, alone at 4 gae/ha) of the same molecule?
Its value is 62.5%.
